{
  "source": "patent US7799343B2",
  "about": "“Safer control of broadleaf weeds in turf with granular formulations of ALS inhibiting herbicides” (priority 2006, dated 2010)",
  "format_in_all_cases": "in vivo",
  "key": {"[1]": {"test_system": "white clover, Trifolium repens L. (TRFRE)", "assay": "Postemergent weed control field study, Pennsylvania 2004, TRFRE", "conditions": "g ai/Ha: penoxsulam 35, imazaquin 104, bispyribac-sodium 75, trifloxysulfuron-sodium 9.2, metsulfuron-methyl 10.4; for Percent Weed Control TRFRE 29DAA: 29 Days After Application; for Percent Weed Control TRFRE 56DAA: 56 Days After Application", "excerpt": "(§1) The ALS inhibiting herbicides are useful in controlling broadleaf weeds and sedges in turfgrass. They are particularly effective against most important weeds in this application, viz., white clover, Trifolium repens L. (TRFRE); buckhorn plantain, Plantago lanceolata L. (PLALA); dandelion, Taraxacum officinale (TAROF); broadleaf plantain, Plantago major L. (PLAMA); ground ivy, Glechoma hederacea L. (GLEHE); common lespedeza, Lespedeza striata (LESST); pennywort (dollarweed), Hydrocotyle spp (HYDSS); Virginia buttonweed, Diodia virginiana L. (DIQVI) English daisy, Bellis perennis L. (BELPE); annual bluegrass, Poa annua (POANN); and yellow nutsedge, Cypres esculentus L. (CYPES).\n(§2) Field studies were conducted in established turfgrass sites containing a natural population of target broadleaf weeds. Replicated trials, containing a minimum of three replications and having individual plots ranging in size from 25 to 50 ft. sq (2.3 to 4.6 square meters), were initiated in the late spring when turf and weeds were actively growing. […] Applications were made in the early morning when dew was present. Natural rainfall and supplemental irrigation were used to maintain healthy turf and active weed growth throughout the study period. Control of each weed species in the study site was made at approximately 2, 4 and 8 weeks after treatment. Control was determined visually by comparing treated and untreated weeds and scored on a 0 to 100 percent scale where 0 corresponds to no control and 100 corresponds to complete kill."}, "[2]": {"test_system": "buckhorn plantain, Plantago lanceolata L. (PLALA)", "assay": "Postemergent weed control field study, Pennsylvania 2004, PLALA", "conditions": "g ai/Ha: penoxsulam 35, imazaquin 104, bispyribac-sodium 75, trifloxysulfuron-sodium 9.2, metsulfuron-methyl 10.4; for Percent Weed Control PLALA 29DAA: 29 Days After Application; for Percent Weed Control PLALA 56DAA: 56 Days After Application", "excerpt": "as §1, §2"}, "[3]": {"test_system": "dandelion, Taraxacum officinale (TAROF)", "assay": "Postemergent weed control field study, Pennsylvania 2004, TAROF", "conditions": "Liquid formulation, g ai/Ha: penoxsulam 35, imazaquin 104, bispyribac-sodium 75, trifloxysulfuron-sodium 9.2, metsulfuron-methyl 10.4"}, "perennial ryegrass [4]": {"test_system": "perennial ryegrass", "assay": "Perennial ryegrass turf quality field study, Pennsylvania 2004", "conditions": "perennial ryegrass, 0 = brown to dead turf, 10 = highest quality, g ai/Ha: penoxsulam 35, imazaquin 104, bispyribac-sodium 75, trifloxysulfuron-sodium 9.2, metsulfuron-methyl 10.4; for Turf Quality 4 DAA: 4 Days After Application; for Turf Quality 16 DAA: 16 Days After Application; for Turf Quality 36 DAA: 36 Days After Application", "protocol": "(§3) Turf tolerance studies were conducted in monoculture stands of perennial ryegrass and tall fescue. Replicated trials, containing a minimum of three replications and having individual plots ranging in size from 25 to 50 ft. sq (2.3 to 4.6 square meters), were initiated in the late spring when turf was actively growing. […] Natural rainfall and supplemental irrigation, fertilizer, fungicides and insecticides were used to maintain healthy turf throughout the study period. Turf tolerance evaluations were made weekly for 8 weeks after application. Evaluations compared treated and untreated plot areas and consisted of one or all of the following evaluations: 1) visual estimate of turf injury made on a 0 to 10 scale with 0 indicating no visible injury symptoms, 10 being dead turf and 3 or less being commercially acceptable; 2) visual estimate of turf color made on a 0 to 10 scale with 0 being brown to dead turf, 10 being a lush green turf of highest quality and 6.5 being commercially acceptable; 3) visual estimate of turf density made on a 0 to 100 scale with 0 being bare ground, 100 being a thick solid stand of highest quality and 90 percent density being commercially acceptable; 4) visual estimate of turf quality made on a 0 to 10 scale with 0 being brown to dead turf, 10 being a lush green turf of highest quality and 6.5 being commercially acceptable."}, "[5]": {"test_system": "annual bluegrass, Poa annua (POANN)", "assay": "Postemergent weed control field study, Pennsylvania 2004, POANN", "conditions": "g ai/Ha: penoxsulam 35, imazaquin 104, bispyribac-sodium 75, trifloxysulfuron-sodium 9.2, metsulfuron-methyl 10.4; for Percent Weed Control POANN 29DAA: 29 Days After Application; for Percent Weed Control POANN 56DAA: 56 Days After Application", "excerpt": "as §1\n(§4) Field studies were conducted in established turfgrass sites containing a natural population of target broadleaf weeds. Replicated trials, containing a minimum of three replications and having individual plots ranging in size from 25 to 50 ft. sq (2.3 to 4.6 square meters), were initiated in the late spring when turf and weeds were actively growing. Granule treatments were uniformly applied to individual plots using a common hand-shaker method. Applications were made in the early morning when dew was present. Natural rainfall and supplemental irrigation were used to maintain healthy turf and active weed growth throughout the study period. Control of each weed species in the study site was made at approximately 2, 4 and 8 weeks after treatment. Control was determined visually by comparing treated and untreated weeds and scored on a 0 to 100 percent scale where 0 corresponds to no control and 100 corresponds to complete kill."}, "tall fescue": {"test_system": "tall fescue", "assay": "Turf tolerance field study, tall fescue, Indiana 2004", "conditions": "14 Days After Treatment, g ai/Ha: penoxsulam 35, imazaquin 104, bispyribac-sodium 75, trifloxysulfuron-sodium 9.2, metsulfuron-methyl 10.4; for Cover: 0 = bare ground, 100 = thick solid stand; for Color: 0 = brown to dead turf, 10 = lush green; for Injury: 0 = no visible injury, 10 = dead turf", "protocol": "as §3"}, "perennial ryegrass [6]": {"test_system": "perennial ryegrass", "assay": "Turf tolerance field study, perennial ryegrass, Indiana 2004", "conditions": "21 Days After Treatment, g ai/Ha: penoxsulam 35, imazaquin 104, bispyribac-sodium 75, trifloxysulfuron-sodium 9.2, metsulfuron-methyl 10.4; for Cover: 0 = bare ground, 100 = thick solid stand; for Color: 0 = brown to dead turf, 10 = lush green; for Injury: 0 = no visible injury, 10 = dead turf", "protocol": "as §3"}, "[7]": {"test_system": "dandelion, Taraxacum officinale (TAROF)", "assay": "Postemergent weed control field study, Pennsylvania 2004, TAROF", "conditions": "Granule formulation, g ai/Ha: penoxsulam 35, imazaquin 104, bispyribac-sodium 75, trifloxysulfuron-sodium 9.2, metsulfuron-methyl 10.4", "excerpt": "as §1, §4"}},
  "data": [
    {"smiles": "COc1cc(OC)nc(NC(=O)[N-]S(=O)(=O)c2ncccc2OCC(F)(F)F)n1.[Na+]", "note": "[Trifloxysulfuron-sodium, trifloxysulfuron-sodium]", "values": [
      {"measurement": "Percent Weed Control TRFRE 29DAA", "setting": "[1]; Granule formulation", "value": 80.0, "unit": "%"},
      {"measurement": "Percent Weed Control TRFRE 56DAA", "setting": "[1]; Granule formulation", "value": 56.7, "unit": "%"},
      {"measurement": "Percent Weed Control TRFRE 29DAA", "setting": "[1]; Liquid formulation", "value": 100.0, "unit": "%"},
      {"measurement": "Percent Weed Control TRFRE 56DAA", "setting": "[1]; Liquid formulation", "value": 100.0, "unit": "%"},
      {"measurement": "Percent Weed Control PLALA 29DAA", "setting": "[2]; Granule formulation", "value": 0.0, "unit": "%"},
      {"measurement": "Percent Weed Control PLALA 56DAA", "setting": "[2]; Granule formulation", "value": 11.1, "unit": "%"},
      {"measurement": "Percent Weed Control PLALA 29DAA", "setting": "[2]; Liquid formulation", "value": 0.0, "unit": "%"},
      {"measurement": "Percent Weed Control PLALA 56DAA", "setting": "[2]; Liquid formulation", "value": 33.3, "unit": "%"},
      {"measurement": "Percent Weed Control TAROF 29DAA", "setting": "[3]; 29 Days After Application", "value": 98.3, "unit": "%"},
      {"measurement": "Percent Weed Control TAROF 56DAA", "setting": "[3]; 56 Days After Application", "value": 100.0, "unit": "%"},
      {"measurement": "Turf Quality 4 DAA", "setting": "perennial ryegrass [4]; Granule formulation", "value": "9.3 0 to 10 scale"},
      {"measurement": "Turf Quality 16 DAA", "setting": "perennial ryegrass [4]; Granule formulation", "value": "4.3 0 to 10 scale"},
      {"measurement": "Turf Quality 36 DAA", "setting": "perennial ryegrass [4]; Granule formulation", "value": "8.3 0 to 10 scale"},
      {"measurement": "Turf Quality 4 DAA", "setting": "perennial ryegrass [4]; Liquid formulation", "value": "7.7 0 to 10 scale"},
      {"measurement": "Turf Quality 16 DAA", "setting": "perennial ryegrass [4]; Liquid formulation", "value": "2.7 0 to 10 scale"},
      {"measurement": "Turf Quality 36 DAA", "setting": "perennial ryegrass [4]; Liquid formulation", "value": "1.3 0 to 10 scale"},
      {"measurement": "Percent Weed Control POANN 29DAA", "setting": "[5]; Granule formulation", "value": 34.5, "unit": "%"},
      {"measurement": "Percent Weed Control POANN 56DAA", "setting": "[5]; Granule formulation", "value": 39.9, "unit": "%"},
      {"measurement": "Percent Weed Control POANN 29DAA", "setting": "[5]; Liquid formulation", "value": 95.4, "unit": "%"},
      {"measurement": "Percent Weed Control POANN 56DAA", "setting": "[5]; Liquid formulation", "value": 77.2, "unit": "%"},
      {"measurement": "Cover", "setting": "tall fescue; Granule formulation", "value": "70.0 0-100 Scale"},
      {"measurement": "Color", "setting": "tall fescue; Granule formulation", "value": "5.8 0-10 Scale"},
      {"measurement": "Injury", "setting": "tall fescue; Granule formulation", "value": "5.8 0-10 Scale"},
      {"measurement": "Cover", "setting": "tall fescue; Liquid formulation", "value": "51.3 0-100 Scale"},
      {"measurement": "Color", "setting": "tall fescue; Liquid formulation", "value": "3.8 0-10 Scale"},
      {"measurement": "Injury", "setting": "tall fescue; Liquid formulation", "value": "8.0 0-10 Scale"},
      {"measurement": "Cover", "setting": "perennial ryegrass [6]; Granule formulation", "value": "87.5 0-100 Scale"},
      {"measurement": "Color", "setting": "perennial ryegrass [6]; Granule formulation", "value": "6.8 0-10 Scale"},
      {"measurement": "Injury", "setting": "perennial ryegrass [6]; Granule formulation", "value": "5.3 0-10 Scale"},
      {"measurement": "Cover", "setting": "perennial ryegrass [6]; Liquid formulation", "value": "57.5 0-100 Scale"},
      {"measurement": "Color", "setting": "perennial ryegrass [6]; Liquid formulation", "value": "4.0 0-10 Scale"},
      {"measurement": "Injury", "setting": "perennial ryegrass [6]; Liquid formulation", "value": "8.0 0-10 Scale"},
      {"measurement": "Percent Weed Control TAROF 29DAA", "setting": "[7]; 29 Days After Application", "value": 80.6, "unit": "%"},
      {"measurement": "Percent Weed Control TAROF 56DAA", "setting": "[7]; 56 Days After Application", "value": 40.0, "unit": "%"}
    ]}
  ]
}
